Like-named read-outs stand apart in the source and are kept apart here. Bridge positions count the residues as written; N and C are the ends. Square brackets hold non-standard residues; d marks the D form. Peptide text beside a SMILES is read from it. * marks the point of attachment. Ileψ(thiazoline)Cys = CC[C@H](C)[C@H](N)C1=N[C@H](C(=O)*)CS1; dOrn = NCCC[C@@H](N)C(=O)O
How the values were obtained:
MRSA USA300 (BAA-1680) [1] = assay: microbe, parasite or virus in culture; format: cell-based, Staphylococcus aureus; settings: for bactericidal activity in combination with bacitracin: FIG. 2
Text: (§1) MRSA (ATCC 33593), MSSA (ATCC 29213), and MRSA USA300 (BAA-1680) strains were purchased from the American Type Culture Collection (ATCC; Manassas, Va.). Eight clinical isolates of MRSA were obtained from the Culture Collection of Antimicrobial Resistant Microbes, Korea National Research Resource Center (KNRRC). Salmonella enterica Typhimurium LT2 was purchased from ATCC, and Escherichia coli O157:H7 is a kind gift from Dr. Sangryeol Ryu (Seoul National University, South Korea). All S. aureus strains were maintained in Trypticase Soy (TS) medium, and E. coli O157:H7 and Salmonella were routinely grown aerobically on Luria-Bertani (LB) media at 37° C. For measuring growth kinetics, an overnight culture of MRSA in Mueller-Hinton (MH) broth was diluted 100-fold in fresh MH broth and cultured until early exponential phase. The culture (200 μl) was transferred to each well of a sterile 96-well plate and incubated at 37° C. with bacitracin alone, alkyl gallate alone, and combination of bacitracin/alkyl gallates at various concentrations. The optical density at 600 nm (OD600) was measured every hour with FLUOstar® Omega (BMG Labtech, Germany).
(§2) Broth micro dilution assays were performed to determine the minimum inhibitory concentrations (MIC) accordance to the M7-A7 protocol of the Clinical and Laboratory Standards Institute (CLSI) guidelines^28. The susceptibility test was carried out with an initial bacterial inoculum of 1.5×10^5 CFU ml^−1. Alkyl gallates and bacitracin were serially diluted in a polystyrene 96 well plate and the plate was incubated at 37° C. for 24 h. Minimum bactericidal concentration (MBC) was determined by spotting 10 μl of cultures from MIC tests onto MH agar and incubated aerobically at 37° C.

MRSA USA300 (BAA-1680) [2] = assay: Growth kinetics (OD600) with bacitracin, alkyl gallates and combinations; format: cell-based, Staphylococcus aureus; settings: for growth inhibition by bacitracin in combination with alkyl gallate: bacitracin 0.001 U to 100 U
Text: as §1

USA300 = assay: Bacterial membrane permeability (propidium iodide fluorescence); format: cell-based, Staphylococcus aureus; settings: agent alone, sub-MIC levels, EDTA 1 mM
Experimental: Membrane permeability was determined by measuring fluorescence after exposure of USA300 to propidium iodide as described previously^29. Briefly, USA300 was grown in MH broth to the exponential phase and then diluted to OD600≈0.25. Propidium iodide was mixed with bacteria to a final concentration of 10 μM. […] Fluorescence was monitored at excitation and emission wavelengths of 585 nm and 620 nm, respectively, for 1 h using FLUOstar Omega® (BMG Labtech, Germany). The membrane permeability was calculated by subtracting fluorescence intensity of controls without treatment with phenolic compounds from that of treated samples. EDTA (1 mM) was used as a positive control.

MRSA 3095 = assay: microbe, parasite or virus in culture; format: cell-based, Staphylococcus aureus; settings: MRSA 3095 (human/skin)
Text: as §1, §2

MRSA 3795 = assay: microbe, parasite or virus in culture; format: cell-based, Staphylococcus aureus; settings: MRSA 3795 (human/nose)
Text: as §1, §2

MRSA 3799 = assay: microbe, parasite or virus in culture; format: cell-based, Staphylococcus aureus; settings: MRSA 3799 (human/nose)
Text: as §1, §2

MRSA 3823 = assay: microbe, parasite or virus in culture; format: cell-based, Staphylococcus aureus; settings: MRSA 3823 (human/nose)
Text: as §1, §2

MRSA 3865 = assay: microbe, parasite or virus in culture; format: cell-based, Staphylococcus aureus; settings: MRSA 3865 (human/skin)
Text: as §1, §2

MRSA 3876 = assay: microbe, parasite or virus in culture; format: cell-based, Staphylococcus aureus; settings: MRSA 3876 (human/skin)
Text: as §1, §2

MRSA 3903 = assay: microbe, parasite or virus in culture; format: cell-based, Staphylococcus aureus; settings: MRSA 3903 (human/skin)
Text: as §1, §2

MRSA 3A585 = assay: microbe, parasite or virus in culture; format: cell-based, Staphylococcus aureus; settings: MRSA 3A585 (human/blood)
Text: as §1, §2

MRSA (ATCC 33593) = assay: microbe, parasite or virus in culture; format: cell-based, Staphylococcus aureus; settings: MRSA; for MIC: antioxidant alone
Text: as §1, §2
(§3) MICs were determined with MRSA and methicillin-sensitive S. aureus (MSSA) using a broth dilution method as described above.
(§4) MRSA and MSSA were cultured overnight with antioxidants (0.5 μg/ml) and bacitracin at various concentrations and 10 μL of the culture was spotted on MH agar plates and incubated aerobically at 37° C. to observe the bacterial viability. The results in FIGS. 9A, 9B, 9C and 9D (photographs of plates) show the Minimal Bactericidal Concentrations (MBCs) for indicated antioxidants. Bacitracin killed MRSA and MSSA at concentrations greater than or equal to 2 μg/mi.

MSSA (ATCC 29213) = assay: MIC (broth dilution) and MBC (spotting) of phenolic antioxidants and bacitracin; format: cell-based, Staphylococcus aureus; settings: for MIC: antioxidant alone
Text: as §1, §2, §3, §4

[3] = system: MRSA (normal MRSA strain, not USA300); assay: MRSA growth (optical density) with bacitracin and phenolic antioxidants; format: cell-based, Staphylococcus aureus
Text: as §1
MRSA were grown with bacitracin (0.002 μg/mL) with antioxidant (as shown) at 0.5 μg/mL.
FIG. 7A is growth with no added bacitracin or lauryl gallate.
The optical density of MRSA was measured after 18 h culture with bacitracin (0.002 μg/ml) and antioxidants (as indicated at 0.5 μg/ml). Also measured were controls with no additions, with bacitracin alone and with antioxidant alone. FIGS. 8A, 8B, 8C and 8D are graphs illustrating the results.

Escherichia coli O157:H7 = assay: microbe, parasite or virus in culture; format: cell-based; settings: E. coli O157:H7; agent alone
Text: as §1, §2
MIC and MBC were measured as described above. MIC and MBC data are shown in Table 5 for both the Salmonella and the E. coli strain tested. The tested strains were highly resistant to bacitracin.

[4] = Staphylococcus aureus, 24 h, agent alone, read-out: MIC
[5] = Staphylococcus aureus, agent alone, read-out: MBC
[6] = Staphylococcus aureus, read-out: MIC
[7] = antioxidant 0.5 μg/ml, compared to bacitracin alone

Compound	MBC (MRSA USA300 (BAA-1680) [1]; agent alone)	MIC (MRSA USA300 (BAA-1680) [1]; agent alone)	growth inhibition by bacitracin in combination with alkyl gallate (MRSA USA300 (BAA-1680) [2])	MIC (MRSA 3095; [6])	MIC (MRSA 3795; [6])	MIC (MRSA 3799; [6])	MIC (MRSA 3823; [6])	MIC (MRSA 3865; [6])	MIC (MRSA 3876; [6])	MIC (MRSA 3903; [6])	MIC (MRSA 3A585; [6])	other results
CC[C@H](C)[C@H](N)C1=N[C@H](C(=O)N[C@@H](CC(C)C)C(=O)N[C@H](CCC(=O)O)C(=O)N[C@H](C(=O)N[C@H]2CCCCNC(=O)[C@H](CC(N)=O)NC(=O)[C@@H](CC(=O)O)NC(=O)[C@H](Cc3cnc[nH]3)NC(=O)[C@@H](Cc3ccccc3)NC(=O)[C@H]([C@@H](C)CC)NC(=O)[C@@H](CCCN)NC2=O)[C@@H](C)CC)CS1 [Bacitracin, reference compound] ({Ileψ(thiazoline)Cys}-L[dE]IK[dOrn]I[dF]H[dD]N; lactam 4-C)	2048 µg/mL	1024 µg/mL										MBC (MRSA USA300 (BAA-1680) [1]; bacitracin alone, in units): 200 U; MIC (MRSA USA300 (BAA-1680) [1]; bacitracin alone, in units): 100 U; growth inhibition by bacitracin only (MRSA USA300 (BAA-1680) [2]; up to 100 U bacitracin, without alkyl gallates): did not inhibit USA300; membrane permeability (USA300): did not affect membrane permeability; MIC (MRSA 3095): 128 µg/mL; MIC (MRSA 3795): 8 µg/mL; MIC (MRSA 3799): 128 µg/mL; MIC (MRSA 3823): 64 µg/mL; MIC (MRSA 3865): 128 µg/mL; MIC (MRSA 3876): 128 µg/mL; MIC (MRSA 3903): 32 µg/mL; MIC (MRSA 3A585): 128 µg/mL; bacitracin MIC for MRSA (MRSA (ATCC 33593); bacitracin alone): 2 µg/mL; concentration of bacitracin alone that killed (MBC) (MRSA (ATCC 33593); bacitracin alone): greater than or equal to 2 μg/mi; concentration of bacitracin alone that killed (MBC) (MSSA (ATCC 29213); bacitracin alone): greater than or equal to 2 μg/mi; MRSA growth inhibition by bacitracin alone ([3]; bacitracin 0.0019 μg/mL to 1 μg/mL, FIG. 7B): did not inhibit MRSA; MBC (Escherichia coli O157:H7): >1024 µg/mL; MIC (Escherichia coli O157:H7): >1024 µg/mL
CCCCOC(=O)c1cc(O)c(O)c(O)c1 [Butyl gallate (BG), Butyl gallate]			significant growth inhibition	512 µg/mL	512 µg/mL	512 µg/mL	512 µg/mL	512 µg/mL	512 µg/mL	512 µg/mL	512 µg/mL	bactericidal activity in combination with bacitracin (MRSA USA300 (BAA-1680) [1]): synergistic antimicrobial activity; MIC (MRSA USA300 (BAA-1680) [1]; [4]): 512 µg/mL; MBC (MRSA USA300 (BAA-1680) [1]; [5]): 1020 µg/mL
O=C(O)CN(CCN(CC(=O)O)CC(=O)O)CC(=O)O [EDTA, reference compound]												membrane permeability (USA300): significantly increased membrane permeability
CCOC(=O)c1cc(O)c(O)c(O)c1 [Ethyl gallate (EG), ethyl gallate]	256 µg/mL	128 µg/mL	significant growth inhibition	> 1020 µg/mL	> 1020 µg/mL	> 1020 µg/mL	> 1020 µg/mL	> 1020 µg/mL	> 1020 µg/mL	> 1020 µg/mL	> 1020 µg/mL	
COC(=O)c1cc(O)c(O)c(O)c1 [Methyl gallate (MG), methyl gallate]	256 µg/mL	128 µg/mL	significant growth inhibition	> 1020 µg/mL	> 1020 µg/mL	> 1020 µg/mL	> 1020 µg/mL	> 1020 µg/mL	> 1020 µg/mL	> 1020 µg/mL	> 1020 µg/mL	
CCCOC(=O)c1cc(O)c(O)c(O)c1 [Propyl gallate, propyl gallate]	256 µg/mL	128 µg/mL		> 1020 µg/mL	512 µg/mL	512 µg/mL	512 µg/mL	> 1020 µg/mL	> 1020 µg/mL	> 1020 µg/mL	> 1020 µg/mL	fold decrease of bacitracin MBC by antioxidant (MRSA (ATCC 33593); [7]): 8 fold; MIC (MRSA (ATCC 33593)): 512 µg/mL; MIC (MRSA (ATCC 33593); [6]): 256 µg/mL; MIC (MSSA (ATCC 29213); [6]): 128 µg/mL; fold decrease of bacitracin MBC by antioxidant (MSSA (ATCC 29213); [7]): 16 fold; MIC (MSSA (ATCC 29213)): 64 µg/mL; growth of MRSA with bacitracin plus antioxidant ([3]; bacitracin 0.002 μg/mL, antioxidant 0.5 μg/mL, FIG. 6): significantly inhibited the growth of MRSA
CCCCCCCCCCCCCCCCCCOC(=O)c1cc(O)c(O)c(O)c1 [Stearyl gallate (SG), stearyl gallate]			completely inhibited the growth of USA300	> 1020 µg/mL	> 1020 µg/mL	> 1020 µg/mL	> 1020 µg/mL	> 1020 µg/mL	> 1020 µg/mL	> 1020 µg/mL	> 1020 µg/mL	bactericidal activity in combination with bacitracin (MRSA USA300 (BAA-1680) [1]): killing effect was not as significant as OG, LG, and BG; MIC (MRSA USA300 (BAA-1680) [1]; [4]): 1020 µg/mL; MBC (MRSA USA300 (BAA-1680) [1]; [5]): 2050 µg/mL
